Assays:
[1] = system: saccharomyces cerevisiae; assay: lowest bacteriostasis concentration, tube double dilution method; format: cell-based; details: 24 hours, 37° C.
Procedure: (§1) The lowest bacteriostasis concentration of the six kinds of the alkoxylpropylisothiazolinone of the present invention is measured through the tube double dilution method. In a Φ18×180 mm tube, 5 ml aseptic culture medium was added, then 50 μl bacteria suspended liquid of coliform was injected to prepare culture solution of beef extract peptone having bacteria concentration of 10^7 cfu/ml, then 50 μl tetrahydrofuran solution containing 4,5-dichloro-2-isopropoxypropyl-4-isothiazolin-3-one with the concentration of 2 μg/ml, 4 μg/ml, 8 μg/ml, 16 μg/ml, 32 μg/ml were added respectively. After cultured for 24 hours under a constant temperature of 37° C., the lowest bacteriostasis concentration of 4,5-dichloro-2-isopropoxypropyl-4-isothiazolin-3-one against coliform bacteria was measured. The result is 8 μg/ml (the cfu is a colong forming unit, 1 cfu refer to one single colong formed on the agar plate after being cultured).
(§2) When the coliform bacteria of the present invention is replaced with saccharomyces cerevisiae or staphylococcus aureus, and the 4,5-dichloro-2-isopropoxypropyl-4-isothiazolin-3-one is replaced with 4,5-dichloro-2-methoxy-propyl-4-isothiazolin-3-one, 4,5-dichloro-2-ethoxypropyl-4-isothiazolin-3-one, 4,5-dichloro-2-butoxypropyl-4-isothiazolin-3-one, 4,5-dichloro-2-methoxyethoxypropyl-4-isothiazolin-3-one, or 4,5-dichloro-2-chlorophenoxyethoxypropyl-4-isothiazolin-3-one, a considerable experimental results are also received, which are shown in the following table.

[2] = system: staphylococcus aureus; assay: as above; format: cell-based; details: 24 hours, 37° C.
Procedure: as §1, §2

[3] = system: coliform bacteria; assay: as above; format: cell-based; details: 10^7 cfu/ml, 24 hours, 37° C.
Procedure: as §1

[4] = system: heterotrophic bacteria; assay: sterilization test in industrial cooling (circulating) water system; details: for control and sterilization of microorganism in industry cooling water (in words): industrial cooling water; for the amount of the heterotrophic bacteria, virtual result / the rate of sterilization: 50 mg/L medicament
Text: The compound of the present invention may be used to control and sterilize alga, fungi and bacteria in the industrial cooling water system. First, chlorine was stopped adding into the circulating water system for 3 days before administration. The total amount of the heterotrophic bacteria in the circulating water was raised, and then the 4,5-dichloro-2-methoxyethoxypropyl-4-isothiazolin-3-one was thrown in, while the discharge of the water was stopped. The amount of the heterotrophic bacteria in water and the sterilization rate was measured at 4 hours, 12 hours, 24 hours, 36 hours after the medicament was added.

[5] = system: leaf spot of beet; assay: drug action and field test against leaf spot of beet; format: in vivo
Text: Otherwise, it has also a good prevent function to the apple ring rot, tomato gray mold and cotton soreshin. For example, when the 4,5-dichloro-2-isopropoxypropyl-4-isothiazolin-3-one is used as bactericide, it is merely required 39 g pure medicament per mu ( 1/15 of a hectare) with the concentration of 250 ppm to control the leaf spot of bee, and the efficiency of the prevention and cure is up to 75.0%.

**Q.** With `CCCCOCCCn1sc(Cl)c(Cl)c1=O` as the compound, how does the lowest bacteriostasis concentration [1] read?
**A.** The lowest bacteriostasis concentration was 4 µg/mL.

**Q.** What about the lowest bacteriostasis concentration [2] of the same compound?
**A.** Its lowest bacteriostasis concentration is 8 µg/mL.

**Q.** What about the lowest bacteriostasis concentration [3] of the same compound?
**A.** Its lowest bacteriostasis concentration is 4 µg/mL.

**Q.** And the “control and sterilization of microorganism in industry cooling water (in words)” value [4]?
**A.** The value was “controlled and sterilized effectively”.

**Q.** With `COC(COC(C)Cn1sc(Cl)c(Cl)c1=O)OC` (centres unmarked) [4,5-dichloro-2-dimethoxyethoxypropyl-4-isothiazolin-3-one] as the compound, how does the “effect of the prevention and cure (in words)” value [5] read?
**A.** The value was “considerable effect of the prevention and cure”.

**Q.** Which results are given for `O=c1c(Cl)c(Cl)sn1CCCOCCOc1ccc(Cl)cc1` [4,5-dichloro-2-chlorophenoxyethoxypropyl-4-isothiazolin-3-one]?
**A.** lowest bacteriostasis concentration [1]: 8 µg/mL; lowest bacteriostasis concentration [2]: 16 µg/mL; lowest bacteriostasis concentration [3]: 8 µg/mL

**Q.** What does the source list for `CCOCCCn1sc(Cl)c(Cl)c1=O` [4,5-dichloro-2-ethoxypropyl-4-isothiazolin-3-one]?
**A.** lowest bacteriostasis concentration [1]: 8 µg/mL; lowest bacteriostasis concentration [2]: 16 µg/mL; lowest bacteriostasis concentration [3]: 4 µg/mL; control and sterilization of microorganism in industry cooling water (in words) [4]: controlled and sterilized effectively; effect of the prevention and cure (in words) [5]: considerable effect of the prevention and cure

**Q.** With `CC(C)OCCCn1sc(Cl)c(Cl)c1=O` [4,5-dichloro-2-isopropoxypropyl-4-isothiazolin-3-one] as the compound, how does the lowest bacteriostasis concentration [1] read?
**A.** Its lowest bacteriostasis concentration is 8 µg/mL.

**Q.** What about the lowest bacteriostasis concentration [2] of the same compound?
**A.** Its lowest bacteriostasis concentration is 16 µg/mL.

**Q.** And the lowest bacteriostasis concentration [3]?
**A.** The lowest bacteriostasis concentration was 8 µg/mL.

**Q.** What about the “control and sterilization of microorganism in industry cooling water (in words)” value [4] of the same compound?
**A.** The value was “controlled and sterilized effectively”.

**Q.** And the “effect of the prevention and cure (in words)” value [5]?
**A.** The value was “considerable effect of the prevention and cure”.

**Q.** What about the “efficiency of the prevention and cure” value ([5]; 39 g pure medicament per mu, 250 ppm) of the same compound?
**A.** The value was “up to 75.0%”.

**Q.** Which results are given for `COCCCn1sc(Cl)c(Cl)c1=O`?
**A.** lowest bacteriostasis concentration [1]: 16 µg/mL; lowest bacteriostasis concentration [2]: 32 µg/mL; lowest bacteriostasis concentration [3]: 4 µg/mL; control and sterilization of microorganism in industry cooling water (in words) [4]: controlled and sterilized effectively

**Q.** What does the source list for `COCCOCCCn1sc(Cl)c(Cl)c1=O` [4,5-dichloro-2-methoxyethoxypropyl-4-isothiazolin-3-one]?
**A.** lowest bacteriostasis concentration [1]: 16 µg/mL; lowest bacteriostasis concentration [2]: 16 µg/mL; lowest bacteriostasis concentration [3]: 16 µg/mL; the amount of the heterotrophic bacteria, virtual result ([4]; 4 h after addition): 2.0 × 10^5 number/mL; the rate of sterilization ([4]; 4 h after addition): 99.33%; the amount of the heterotrophic bacteria, virtual result ([4]; 12 h after addition): 4.0 × 10^4 number/mL; the rate of sterilization ([4]; 12 h after addition): 99.87%; the amount of the heterotrophic bacteria, virtual result ([4]; 24 h after addition): 3.0 × 10^4 number/mL; the rate of sterilization ([4]; 24 h after addition): 99.90%; the amount of the heterotrophic bacteria, virtual result ([4]; 36 h after addition): 3.3 × 10^4 number/mL; the rate of sterilization ([4]; 36 h after addition): 99.89%; effect of the prevention and cure (in words) [5]: considerable effect of the prevention and cure
